Experimental findings from article PMC10887108, “Novel Brain-Penetrant, Small-Molecule Tubulin Destabilizers for the Treatment of Glioblastoma” (Biomedicines, 2024) are described below.

Values joined by “and” are separate entries in the source; they are usually repeats but may differ in a detail not shown here. Equal entries are not always repeated. Where two headings read alike, the source gives them in different places.

Data set [1] in a line: Plasma pharmacokinetics after oral dosing. The class given is in vivo, CD-1 mice. To be noted: mouse, 100 mg/kg oral, CD-1 male mice. The protocol:
Pharmacokinetic studies were carried out by DMPK at WuXi AppTec, Inc. (Cranbury, NJ, USA). The pharmacokinetics of RGN3067 were evaluated in three male CD-1 mice. RGN3067 formulated as a 10 mg/mL solution (20% DMSO, 80% PEG400: PVP 95:5) was administered by oral gavage at a dose of 100 mg/kg. Plasma samples were drawn at 0.5, 1, 2, 4, 6, 10 and 24 h. Samples were analyzed by LC-MS/MS. A calibration curve was established using Waters ACQUITY UPLC BEH C18 column and formic acid in water and formic acid in acetonitrile as mobile phase. Tolbutamide and labetalol were used as internal standards for LC-MS/MS analysis. Compound was detected using electrospray ionization (ESI) positive detection. Pharmacokinetic parameters were calculated using the PO-noncompartmental linear model in Phoenix WinNonlin software v8.3 (Certara, Princeton, NJ, USA).

For data set [2], the system named is GBM12, GBM15, GBM39 and GBM43 patient-derived GB cell lines. Put plainly: CellTiter-Glo viability assay, four patient-derived GB cell lines. The class given is cell-based. The following applies: Homo sapiens, 144 h, read-out: IC50 cell viability, range over four patient-derived GB cell lines. The protocol: Short-term cultures of patient-derived cells GBM12, GBM15, GBM39 and GBM43 (used with permission Mayo Foundation) were seeded (1000 cells/well) in solid white Corning 384-well plates (Corning, NY, USA) and cultured overnight. Cells were treated with DMSO or RGN3067 in a 13-point dose response with a 1:3 serial dilution from an initial concentration of 100 μM. After 144 h, cell viability was measured using CellTiter-Glo (Promega, Madison, WI, USA). Data were normalized to DMSO control, and absolute IC50 values were calculated using GraphPad Prism 10 (San Diego, CA, USA).
(ATP-based viability assays read luminescence as a measure of living cells.)

Data set [3] in a line: Metabolite profiling in cryopreserved hepatocytes. The following applies: mouse, rat, dog, monkey, and human hepatocytes, 120 min. The class given is in vitro ADME. The protocol: Metabolite profiling was carried out by WuXi DMPK (Nanjing, China). RGN3067 (10 μM) was profiled in CD-1 mice (BioIVT, Westbury, NY, USA), SD rats (BioIVT), beagle dogs (BioIVT), cynomolgus monkeys (Research Institute for Liver Diseases [RILD], Shanghai, China), and human cryopreserved hepatocytes (BioIVT). The positive control was 7-ethoxycoumarin (30 μM). Compounds were added to hepatocytes (400 µL, 1 × 10^6/mL), and reactions were carried out at 37 °C in 5% CO2/saturated humidity for 120 min. Reactions were stopped by the addition of ice-cold ACN (400 μL). Samples were shaken at 300 rpm for 10 min, then centrifuged at 13,000× g for 10 min. Supernatants were evaporated under a stream of N2. Residue from the RGN3067 incubation was reconstituted with ACN: H2O (200 μL, v:v, 3:7), followed by centrifugation at 14,000 rpm for 10 min, and the supernatant was used for qualitative and semi-quantitative analysis using LC-UV/HRMS. A Shimadzu UFLC-20A with autosampler was used for chromatographic separation. Detection and structure were determined using a Thermo Q-Extractive mass spectrometer in full MS/MS^2 scan mode and Xcalibur Data Acquisition and Interpretation Software v4.2.

The nature of data set [4]: Plasma protein binding (dialysis). The following applies: range over mouse, rat, and human plasma. The class given is in vitro ADME. The protocol: Compounds (5 µM/0.2% DMSO) were tested in dialysis chambers. Blank dialysis buffer was added to the receiver side (100 μL), and plasma (100 μL) with test and reference compounds was added to the donor side of the chamber and incubated at 37 °C on an orbital shaker. Plasma was precipitated at 0 and 5 h. Aliquots from donor and receiver sides of the dialysis apparatus (25 μL) were added to sample preparation plates and mixed with aliquots of the opposite matrix (25 μL, blank buffer to plasma and vice versa). Samples were quenched with stop solution (400 μL) containing internal standard, vortexed at 600 rpm for 10 min, and centrifuged at 4000 rpm for 10 min. Supernatants were analyzed by LC-MS. Quinidine and warfarin were used as positive controls.

In another data set the target is T1, porcine tubulin (Sus scrofa, UniProt P02554).
T1 construct: purchased Cytoskeleton, Inc. BK011P
The experiment in a line: Tubulin polymerization assay (fluorescent reporter). The class given is biochemical. To be noted: compound 5 μM, porcine tubulin 20 μM, relative to DMSO. The protocol: Tubulin polymerization was evaluated by monitoring the incorporation of a fluorescent reporter into MTs during polymerization. The tubulin polymerization assay kit (Cytoskeleton, Inc. BK011P; Denver, CO, USA) was used according to the manufacturer’s instructions. Briefly, the tubulin reaction mix was kept on ice until immediately prior to use.
(A,B) Representative tubulin polymerization plots and data quantification. […] (C) Immunofluorescence staining of β-tubulin in U87 glioblastoma cells. […] Images were captured using an Operetta confocal microscope at 40× magnification. Scale bar, 10 μm. […] Data was collected with a BD FACS Canto II Flow Cytometer and analyzed using the BD FACSDiva software. (E) The percentage of cells in G1, S, and G2/M phases from the histograms in (D). Data are plotted as mean ± SD from at least three independent experiments. Analysis between groups in (B) was performed using a one-way ANOVA with Tukey’s multiple comparisons test.

Another data set concerns U87 cells. The experiment in a line: Reversibility (washout) cell viability assay. The class given is cell-based. The following applies: Homo sapiens, U-87 MG.
The subject of the next data set is MDR1 (P-gp). The experiment in a line: MDR1-MDCK cellular permeability. The class given is in vitro ADME, canine. To be noted: dog. On the procedure:
Cellular permeability was tested using the MDR1-MDCK (multidrug-resistant-1, Madin–Darby canine kidney) cell line. Donor solution was added to a 96-well plate (2 μL, 2 mM compound; 6 μL DMSO in 1992 μL of Hanks’ balanced salt solution [HBSS] buffer) and shaken at 1000 rpm for 10 min (final 0.4% DMSO). Transepithelial electrical resistance (TEER) values were used as a quality control check for monolayer integrity. At 3–5 days post-seeding, each MDCK II cell monolayer was tested to ensure the TEER value was ≥ 83 Ω⋅cm^2. The compound donor working solution was centrifuged (4000 rpm for 5 min) to remove any precipitated compound prior to loading donor chambers. Apical and basolateral plates were warmed at 37 °C for about 5 min prior to the initiation of transport (37 °C, 90 min).
Luciferin marker Lucifer Yellow (150 μL, 50 μM Lucifer Yellow in HBSS, pH 7.4) was added to the apical compartment, and transfer buffer (600 μL) was added to the receiver plate (basolateral compartment) and incubated at 37 °C for 60 min. Apical Lucifer Yellow concentrations for LYT0 and LYT60 were measured by a fluorometer (EX 485/EM 535 nm). Donor and receiver samples were analyzed by LC-MS. Metoprolol, enalapril, and quinidine were used as positive controls. The efflux ratio was calculated as the ratio of apparent permeability (basal-to-apical) and apparent permeability (apical-to-basal).

T1 sequence (P02554 whole entry): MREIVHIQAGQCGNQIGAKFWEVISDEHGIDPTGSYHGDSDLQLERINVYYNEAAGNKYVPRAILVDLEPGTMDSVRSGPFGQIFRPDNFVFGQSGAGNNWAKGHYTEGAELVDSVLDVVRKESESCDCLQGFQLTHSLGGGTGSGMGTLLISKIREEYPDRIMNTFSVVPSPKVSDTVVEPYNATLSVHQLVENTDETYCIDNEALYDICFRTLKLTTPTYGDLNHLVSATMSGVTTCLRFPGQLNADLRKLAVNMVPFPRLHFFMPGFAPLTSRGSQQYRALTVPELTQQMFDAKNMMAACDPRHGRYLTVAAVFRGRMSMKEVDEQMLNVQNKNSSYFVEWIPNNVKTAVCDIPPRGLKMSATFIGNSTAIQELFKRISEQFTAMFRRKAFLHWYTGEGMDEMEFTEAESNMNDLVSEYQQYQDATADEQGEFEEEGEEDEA
T1 sequence (P02550 whole entry partner): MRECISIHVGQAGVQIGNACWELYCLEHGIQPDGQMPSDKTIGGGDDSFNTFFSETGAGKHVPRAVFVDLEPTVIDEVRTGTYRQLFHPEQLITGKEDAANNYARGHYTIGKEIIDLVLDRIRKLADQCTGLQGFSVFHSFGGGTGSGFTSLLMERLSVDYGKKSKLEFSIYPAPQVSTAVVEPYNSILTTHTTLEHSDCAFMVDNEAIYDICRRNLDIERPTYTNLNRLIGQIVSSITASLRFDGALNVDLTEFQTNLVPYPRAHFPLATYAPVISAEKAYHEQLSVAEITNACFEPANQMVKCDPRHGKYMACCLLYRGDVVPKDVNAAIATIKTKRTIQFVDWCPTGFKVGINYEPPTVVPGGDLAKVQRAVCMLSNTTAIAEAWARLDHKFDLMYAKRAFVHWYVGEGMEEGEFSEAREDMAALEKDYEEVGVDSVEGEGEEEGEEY

Broadly, the AUC is the area under the concentration-time curve, a measure of exposure. Lower therefore signals low exposure. The Cmax is the peak of the concentration-time curve. In general, Tmax refers to the time from dosing to the highest level. In general, half-life refers to the time needed for the level to fall by half in the phase considered. A lower half-life goes with rapid decline. By IC50 is commonly meant the concentration that gives 50% inhibition. As usually defined, the fraction unbound is the share of the substance not bound to proteins or other matrix. Low readings indicate extensive binding, high ones weak binding. By efflux ratio is commonly meant a quotient of directional permeabilities that is used to spot active efflux. As for `CO[C@H]1C[C@@H](C(=O)NC(=O)Nc2ccc(Oc3ccc(Cl)cn3)c(C)c2)C1` [RGN3067], in data set [1], the AUC turned out to be 51200 ng·h/mL; the Cmax is 7810 ng/mL and 20 µM; the time of peak concentration (Tmax) was 2 h; the half-life was 3.61 ± 1.94 h. The IC50 in data set [2] was in the range of 148 to 616 nM. Besides, the “number of metabolites detected and identified” value in data set [3] is given as 10. This molecule showed a fraction unbound at 5 h, 5 µM in data set [4] of 0.018 to 0.026. For the same molecule, the “reduction in tubulin polymerization (AUC)” value on porcine tubulin worked out at 49%. In the data set with U87 cells (U87, compound left in medium, 72 h, read-out: IC50 cell viability, no-washout), the IC50 is 571 nM. For the same molecule, the IC50 in the data set on U87 cells (U87, compound washed out after 6 h, then 72 h, read-out: IC50 cell viability, after washout) was greater than 10000 nM. The efflux ratio at 90 min, 2 µM with MDR1 (P-gp) (Papp basal-to-apical / apical-to-basal) was 0.61. For the same molecule, the Papp at 90 min, 2 µM in the data set with MDR1 (P-gp) (read-out: apparent permeability coefficient) was 22.7 ×10⁻⁶ cm/s.
